For four compounds, EC50 results are on record in EP4596574A1, “GLP-1/GCG/GIP TRIPLE-RECEPTOR AGONIST AND USE THEREOF” (Sunshine Lake Pharma Co., Ltd., priority 2022, dated 2024).

Starred links: 1 amine or outer side, 2 acyl side, 3 side chain; linkers in the order of their positions; H or OH if unused. Non-standard residues stand in square brackets, D forms with d. Residues, ends and D or L forms follow the SMILES beside them. Groups on a side chain read outwards from the residue. *: point of attachment. C18 diacid = O=C(O)CCCCCCCCCCCCCCCCC(=O)*; αMePhe(2-F) = C[C@](N)(Cc1ccccc1F)C(=O)O; γGlu = O=C(O)[C@H](CCC(=O)[*:2])N[*:1]; AEEA = NCCOCCOCC(=O)O; Aib = CC(C)(N)C(=O)O

Assay type in all cases: cell-based
One assay has as its target T1, GLP-1R (Homo sapiens, UniProt P43220).
T1 construct: expressed in transfected cells; host or cells: HEK293 (HEK293-GLP-1R)
In words: In vitro cell activity, cAMP production in HEK293 cells expressing GLP-1R. The conditions noted are these: HEK293-GLP-1R cells, cAMP; read-out: GLP-1R (EC50). In outline:
(§1)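 HEK293 transfectants, 4×10^5 cells/mL, 384-well. Detection: cAMP-d2 + anti-cAMP cryptate 1:1, RT 1 h dark or 4 °C o/n. Read 665/620 nm; 4-parameter nonlinear fit → EC50.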
(Changes in cAMP serve as a functional read-out for many G protein-coupled receptors.)

Another assay concerns the target T2, GCGR (Homo sapiens, UniProt P47871).
T2 construct: expressed in transfected cells; host or cells: HEK293 (HEK293-GCGR)
In words: In vitro cell activity, cAMP production in HEK293 cells expressing GCGR. The conditions noted are these: HEK293-GCGR cells, cAMP; read-out: GCGR (EC50). In outline:
as §1

The target in the next assay is T3, GIPR (Homo sapiens, UniProt P48546).
T3 construct: expressed in transfected cells; host or cells: HEK293 (HEK293-GIPR)
T3 sequence (P48546 22-466): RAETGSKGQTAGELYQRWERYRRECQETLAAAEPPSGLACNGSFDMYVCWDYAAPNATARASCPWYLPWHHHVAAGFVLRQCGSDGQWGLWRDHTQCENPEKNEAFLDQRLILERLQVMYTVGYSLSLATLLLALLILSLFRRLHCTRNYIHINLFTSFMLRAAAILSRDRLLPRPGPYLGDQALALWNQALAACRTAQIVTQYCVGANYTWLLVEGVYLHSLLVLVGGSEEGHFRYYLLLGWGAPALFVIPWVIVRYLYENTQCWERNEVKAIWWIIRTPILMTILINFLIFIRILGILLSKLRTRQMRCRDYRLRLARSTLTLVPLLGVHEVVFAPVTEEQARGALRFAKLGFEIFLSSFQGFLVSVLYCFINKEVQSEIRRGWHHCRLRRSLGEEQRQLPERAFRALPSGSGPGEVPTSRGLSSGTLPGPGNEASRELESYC
Nature of the assay: In vitro cell activity, cAMP production in HEK293 cells expressing GIPR. The settings on record: HEK293-GIPR cells, cAMP; read-out: GIPR (EC50). In outline: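 HEK293 cells expressing human GIPR, thawed and diluted to 4×10^5 cells/mL, are stimulated with test compound. cAMP is measured by HTRF competition between cAMP-d2 and anti-cAMP cryptate. EC50 comes from a four-parameter nonlinear fit of signal ratio against concentration.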

T1 sequence (P43220 24-463, species assumed): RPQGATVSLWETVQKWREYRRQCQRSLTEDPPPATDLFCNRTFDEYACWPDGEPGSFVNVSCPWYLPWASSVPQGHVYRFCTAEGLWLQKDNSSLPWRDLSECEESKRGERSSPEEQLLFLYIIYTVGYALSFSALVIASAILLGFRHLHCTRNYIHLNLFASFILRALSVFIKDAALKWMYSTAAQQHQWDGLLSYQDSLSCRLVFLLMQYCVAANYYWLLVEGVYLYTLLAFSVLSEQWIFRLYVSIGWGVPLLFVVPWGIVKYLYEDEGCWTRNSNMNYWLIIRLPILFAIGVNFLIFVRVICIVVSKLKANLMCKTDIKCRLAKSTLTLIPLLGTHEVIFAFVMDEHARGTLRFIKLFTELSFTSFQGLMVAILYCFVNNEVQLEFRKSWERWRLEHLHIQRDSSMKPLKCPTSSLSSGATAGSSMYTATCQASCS
T2 sequence (P47871 26-477, species assumed): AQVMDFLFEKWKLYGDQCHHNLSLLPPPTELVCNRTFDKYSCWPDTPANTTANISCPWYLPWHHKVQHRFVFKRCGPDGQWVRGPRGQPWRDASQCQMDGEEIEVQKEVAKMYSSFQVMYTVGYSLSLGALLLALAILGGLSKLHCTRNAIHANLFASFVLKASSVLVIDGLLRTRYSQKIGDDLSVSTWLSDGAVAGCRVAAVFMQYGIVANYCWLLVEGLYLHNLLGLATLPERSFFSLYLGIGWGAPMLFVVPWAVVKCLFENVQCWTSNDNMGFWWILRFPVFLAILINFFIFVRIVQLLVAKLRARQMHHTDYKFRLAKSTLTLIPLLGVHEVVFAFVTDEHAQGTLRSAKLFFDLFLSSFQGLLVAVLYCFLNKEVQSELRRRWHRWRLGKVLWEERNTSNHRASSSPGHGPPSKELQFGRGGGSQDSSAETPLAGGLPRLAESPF

Consider `CC[C@H](C)[C@H](NC(=O)[C@H](CO)NC(=O)[C@H](Cc1ccc(O)cc1)NC(=O)[C@H](CC(=O)O)NC(=O)[C@H](CO)NC(=O)[C@@H](NC(=O)[C@](C)(Cc1ccccc1F)NC(=O)[C@@H](NC(=O)CNC(=O)[C@H](CCC(N)=O)NC(=O)C(C)(C)NC(=O)[C@@H](N)Cc1ccc(O)cc1)[C@@H](C)O)[C@@H](C)O)C(=O)N[C@@H](CC(C)C)C(=O)N[C@@H](CCCCNC(=O)COCCOCCNC(=O)CC[C@H](NC(=O)CCCCCCCCCCCCCCCCC(=O)O)C(=O)O)C(=O)N[C@@H](CC(=O)O)C(=O)N[C@@H](CCCNC(=N)N)C(=O)N[C@@H](CCCNC(=N)N)C(=O)N[C@@H](C)C(=O)N[C@@H](CCC(N)=O)C(=O)N[C@@H](CCC(N)=O)C(=O)N[C@@H](C)C(=O)N[C@@H](Cc1ccccc1)C(=O)N[C@H](C(=O)N[C@@H](CCC(=O)O)C(=O)N[C@@H](Cc1ccc(O)cc1)C(=O)N[C@@H](CC(C)C)C(=O)N[C@@H](CC(C)C)C(=O)N[C@@H](C)C(=O)NCC(=O)NCC(=O)N1CCC[C@H]1C(=O)N[C@@H](CO)C(=O)N[C@@H](CO)C(=O)NCC(=O)N[C@@H](C)C(=O)N1CCC[C@H]1C(=O)N1CCC[C@H]1C(=O)N1CCC[C@H]1C(=O)N[C@@H](CO)C(=O)O)C(C)C` [HEC-PT148] (H-Y[Aib]QGT[αMePhe(2-F)]TSDYSILK([AEEA-γGlu-C18 diacid])DRRAQQAFVEYLLAGGPSSGAPPPS-OH), for which the values for the EC50 on GLP-1R, on GCGR and on GIPR were 0.0741 nM, 0.162 nM and 0.312 nM, respectively.
In the case of `CC[C@H](C)[C@H](NC(=O)[C@H](CO)NC(=O)[C@H](Cc1ccc(O)cc1)NC(=O)[C@H](CC(=O)O)NC(=O)[C@H](CO)NC(=O)[C@@H](NC(=O)[C@](C)(Cc1ccccc1F)NC(=O)[C@@H](NC(=O)CNC(=O)[C@H](CCC(N)=O)NC(=O)C(C)(C)NC(=O)[C@@H](N)Cc1ccc(O)cc1)[C@@H](C)O)[C@@H](C)O)C(=O)N[C@@H](CC(C)C)C(=O)N[C@@H](CCCCNC(=O)COCCOCCNC(=O)CC[C@H](NC(=O)CCCCCCCCCCCCCCCCC(=O)O)C(=O)O)C(=O)N[C@@H](CC(=O)O)C(=O)N[C@@H](CCCNC(=N)N)C(=O)N[C@@H](CCCNC(=N)N)C(=O)N[C@@H](C)C(=O)N[C@@H](CCC(N)=O)C(=O)N[C@@H](CCC(N)=O)C(=O)N[C@@H](C)C(=O)N[C@@H](Cc1ccccc1)C(=O)N[C@H](C(=O)N[C@@H](CCC(=O)O)C(=O)N[C@@H](Cc1ccc(O)cc1)C(=O)N[C@@H](CC(C)C)C(=O)N[C@@H](CC(C)C)C(=O)N[C@@H](CCC(=O)O)C(=O)NCC(=O)NCC(=O)N1CCC[C@H]1C(=O)N[C@@H](CO)C(=O)N[C@@H](CO)C(=O)NCC(=O)N[C@@H](C)C(=O)N1CCC[C@H]1C(=O)N1CCC[C@H]1C(=O)N1CCC[C@H]1C(=O)N[C@@H](CO)C(=O)O)C(C)C` [HEC-PT149] (H-Y[Aib]QGT[αMePhe(2-F)]TSDYSILK([AEEA-γGlu-C18 diacid])DRRAQQAFVEYLLEGGPSSGAPPPS-OH), the EC50 was 0.0868 nM at GLP-1R, 0.138 nM at GCGR and 0.264 nM at GIPR.
The like results for `CC[C@H](C)[C@H](NC(=O)[C@H](Cc1ccccc1)NC(=O)[C@H](C)NC(=O)[C@H](CCC(N)=O)NC(=O)[C@H](CCC(N)=O)NC(=O)[C@H](C)NC(=O)[C@H](CCCCNC(=O)COCCOCCNC(=O)CC[C@H](NC(=O)CCCCCCCCCCCCCCCCC(=O)O)C(=O)O)NC(=O)[C@H](CCCNC(=N)N)NC(=O)[C@H](CC(=O)O)NC(=O)[C@H](CC(C)C)NC(=O)[C@H](CC(C)C)NC(=O)[C@@H](NC(=O)[C@H](CO)NC(=O)[C@H](Cc1ccc(O)cc1)NC(=O)[C@H](CC(=O)O)NC(=O)[C@H](CO)NC(=O)[C@@H](NC(=O)[C@](C)(Cc1ccccc1F)NC(=O)[C@@H](NC(=O)CNC(=O)[C@H](Cc1c[nH]cn1)NC(=O)C(C)(C)NC(=O)[C@@H](N)Cc1c[nH]cn1)[C@@H](C)O)[C@@H](C)O)[C@@H](C)CC)C(=O)N[C@@H](CCC(=O)O)C(=O)N[C@@H](Cc1ccc(O)cc1)C(=O)N[C@@H](CC(C)C)C(=O)N[C@@H](CC(C)C)C(=O)N[C@@H](C)C(=O)NCC(=O)NCC(=O)N1CCC[C@H]1C(=O)N[C@@H](CO)C(=O)N[C@@H](CO)C(=O)NCC(=O)N[C@@H](C)C(=O)N1CCC[C@H]1C(=O)N1CCC[C@H]1C(=O)N1CCC[C@H]1C(=O)N[C@@H](CO)C(=O)O` [HEC-PT153] were, in that order, 0.0752 nM, 0.0126 nM and 0.0169 nM.
The like results for `CC[C@H](C)[C@H](NC(=O)[C@H](Cc1ccccc1)NC(=O)[C@H](C)NC(=O)[C@H](Cc1c[nH]cn1)NC(=O)[C@H](CCC(N)=O)NC(=O)[C@H](C)NC(=O)[C@H](CCCCNC(=O)COCCOCCNC(=O)CC[C@H](NC(=O)CCCCCCCCCCCCCCCCC(=O)O)C(=O)O)NC(=O)[C@H](CCCNC(=N)N)NC(=O)[C@H](CC(=O)O)NC(=O)[C@H](CC(C)C)NC(=O)[C@H](CC(C)C)NC(=O)[C@@H](NC(=O)[C@H](CO)NC(=O)[C@H](Cc1ccc(O)cc1)NC(=O)[C@H](CC(=O)O)NC(=O)[C@H](CO)NC(=O)[C@@H](NC(=O)[C@](C)(Cc1ccccc1F)NC(=O)[C@@H](NC(=O)CNC(=O)[C@H](CCC(N)=O)NC(=O)C(C)(C)NC(=O)[C@@H](N)Cc1c[nH]cn1)[C@@H](C)O)[C@@H](C)O)[C@@H](C)CC)C(=O)N[C@@H](CCC(=O)O)C(=O)N[C@@H](Cc1ccc(O)cc1)C(=O)N[C@@H](CC(C)C)C(=O)N[C@@H](CC(C)C)C(=O)N[C@@H](C)C(=O)NCC(=O)NCC(=O)N1CCC[C@H]1C(=O)N[C@@H](CO)C(=O)N[C@@H](CO)C(=O)NCC(=O)N[C@@H](C)C(=O)N1CCC[C@H]1C(=O)N1CCC[C@H]1C(=O)N1CCC[C@H]1C(=O)N[C@@H](CO)C(=O)O` [HEC-PT155] were, in that order, 0.0555 nM, 0.0581 nM and 0.0509 nM.

The term EC50 denotes the midpoint of the concentration-response curve.
